Data on nine compounds can be found in article PMC3781954 (Archives of biochemistry and biophysics, 2013).

For data set [1], the target named is T1, Rabbit CYP2E1 (Oryctolagus cuniculus, UniProt P08682). Kind of data set: Inhibition of 4-nitrophenol oxidation to 4-nitrocatechol by reconstituted CYP2E1. Particulars: for Inhibition Mechanism: most probable mechanism by DynaFit model discrimination, substrate 4-nitrophenol; for kcat2: turnover of the ESI complex, 95% confidence intervals in parentheses; for fold more potent than pyrazole: inhibition of CYP2E1 4-nitrophenol metabolism.
T1 sequence (P08682 whole entry): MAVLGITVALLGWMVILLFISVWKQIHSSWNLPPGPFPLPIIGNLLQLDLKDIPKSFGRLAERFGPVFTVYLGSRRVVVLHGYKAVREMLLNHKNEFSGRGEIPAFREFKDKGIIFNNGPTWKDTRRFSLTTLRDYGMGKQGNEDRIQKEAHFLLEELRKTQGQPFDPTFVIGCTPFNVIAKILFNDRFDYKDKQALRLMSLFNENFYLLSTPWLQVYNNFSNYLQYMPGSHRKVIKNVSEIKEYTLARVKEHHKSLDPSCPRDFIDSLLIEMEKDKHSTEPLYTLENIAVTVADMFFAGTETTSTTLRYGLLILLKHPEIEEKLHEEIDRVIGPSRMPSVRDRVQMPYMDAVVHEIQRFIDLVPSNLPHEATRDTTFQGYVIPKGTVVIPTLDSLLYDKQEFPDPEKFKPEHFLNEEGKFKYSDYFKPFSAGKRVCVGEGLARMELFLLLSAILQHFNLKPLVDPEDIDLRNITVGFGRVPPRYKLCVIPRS

Data set [2] addresses T1, Rabbit CYP2E1. Kind of data set: Spectral binding studies. Particulars: for fold increase in affinity (Kd) relative to pyrazole: catalytic site.
The target of data set [3] is CYP2E1 (Oryctolagus cuniculus, UniProt P08682). Kind of data set: Spectral binding studies. The arrangement: species or system rabbit. The following applies: rabbit, pH 7.4.
CYP2E1 (Oryctolagus cuniculus, UniProt P08682), sequence (P08682 whole entry): as above
The subject of data set [4] is CYP2E1. The following applies: positive cooperativity; ref [4], [6]; cited from earlier work.

For `Cc1cc(C)[nH]n1` [3,5-dimethylpyrazole], the “inhibition of the 4-nitrophenol reaction” value on Rabbit CYP2E1 [1] (concentration as high as 250 µM (data not shown)) was “no inhibition”. Besides, on Rabbit CYP2E1 [2] (concentrations as high as 1000 µM), the “spectral shift upon binding” value is “did not induce a spectral”.
Usually Kd stands for the concentration at which binding is half-saturated. Consider `Cc1cc[nH]n1` [3-methylpyrazole], for which, on Rabbit CYP2E1 [1], the “fold higher affinity for the free enzyme than the ES complex” value is recorded as “two-fold”; the “Inhibition Mechanism” value is recorded as “Mixed, coop. substrate”; the kcat2 was 8.7 (7.0 to 10) min^−1. Moreover, the affinity on Rabbit CYP2E1 [2], expressed as Kd, was 11 µM. For the same compound, the “fold increase in affinity (Kd) relative to pyrazole” value at Rabbit CYP2E1 [2] (spectral binding) is 2 fold. For the same compound, on CYP2E1 [3], the Kd is 1.7 mM.
Turning to `c1ccc(-c2cc[nH]n2)cc1` [3-phenylpyrazole], the “Inhibition Mechanism” value on Rabbit CYP2E1 [1] is recorded as “Competitive”. Moreover, on Rabbit CYP2E1 [2], binding was put at a Kd of 22 µM.
Consider `c1n[nH]c2c1CCCC2`, for which, at Rabbit CYP2E1 [1], the “fold more potent than pyrazole” value was found to be 100 fold; the “Inhibition Mechanism” value is reported as “Mixed, coop. substrate”; the kcat2 was 6.6 (2.3 to 9.6) min^−1. Further, on Rabbit CYP2E1 [2] (spectral binding), the “fold increase in affinity (Kd) relative to pyrazole” value came out at 800 fold.
As usually defined, the Hill coefficient is the slope factor of the fitted curve. In the case of `Cc1cccc(C)c1` [m-xylene], the Hill coefficient with CYP2E1 [4] is 1.4.
For `c1cn[nH]c1` [pyrazole], on Rabbit CYP2E1 [1], the “Inhibition Mechanism” value is given as “Mixed, coop. substrate”.
Compound `c1ccc2[nH]cnc2c1` [benzimidazole] gave a Kd at Rabbit CYP2E1 [2] of 550 µM.
In the case of `c1ccc2[nH]ncc2c1` [indazole], on Rabbit CYP2E1 [1], the “fold more potent than pyrazole” value is recorded as “more than 200 fold”; the “Inhibition Mechanism” value is given as “Mixed, coop. substrate”; the kcat2 was 11 (9.0 to 13) min^−1. Also, the “fold increase in affinity relative to tetrahydroindazole” value at Rabbit CYP2E1 [2] (spectral binding, aromatization of the second ring) was “about five-fold”.
With `CCOc1ccc2ccc(=O)oc2c1` [7-ethoxycoumarin], the Hill coefficient with CYP2E1 [4] is given as 1.6.
